Here are results for 23 compounds from patent publication US7141680B2, “Aromatic compounds possessing antifungal or antibacterial activity” (Genelabs Technologies, Inc., priority 2002, dated 2006).

Where a name gives a salt, the structure may show the parent alone.

In one assay the test system is bacteria. Nature of the assay: Minimum inhibitory concentration (MIC) assay, bacteria. Type of assay: cell-based. Here is the method: The assays described below were used to measure the minimum inhibitory concentration (MIC) of a compound necessary to inhibit visible growth of the organism tested. These assays are adapted from NCCLS protocols M7-A4 and M27-A (NCCLS vol 17:9 and vol 17:2) as modified by Sandven, S., Clin. Micro. (1999) 37:12, p. 3856–3859. MIC values for Aspergillus species were determined using NCCLS protocol M38-P.
All compounds were dissolved in 100% DMSO to a stock concentration of 10 mM and used fresh stock compounds in powder form were kept frozen until needed and used freshly. When used for test purposes, compounds were diluted in the appropriate media depending on the organism being tested.
For yeast and aspergillus species, seven 1:2 serial dilutions of compound in appropriate media buffered with MOPS at pH 7.0 were prepared such that the final starting test compound concentrations were 44.4 μM for yeast and 50 μM aspergillus species. For bacteria, dilutions were made in growth media used for the particular bacteria being tested.
Five well-separated colonies from a 24 h Sabouraud Dextrose plate incubated at 35° C. were picked and resuspended into 2 mL of normal saline. The O.D.530 was read and the culture was adjusted to 0.5 McFarland units with normal saline. A 1:2000 dilution was made with RPMI 1640 media buffered with MOPS at pH 7.0 and 100 μL of this inoculum preparation was added to an equal volume of test compound-containing media. 25 μL of the redox indicator Alamar Blue (Biosource International) was added to each well and the plates were incubated for 48 h at 35° C. Wells having yeast growth changed color from blue to pink.
Inoculums are made in the same manner as yeast except all dilutions are made in normal saline, with a final dilution of 1:200 and an inoculum of 10 μL.

Another assay has as its system Aspergillus species. Nature of the assay: Minimum inhibitory concentration (MIC) assay, filamentous fungi. The assay is classed as cell-based. Conditions: antifungal activity, lowest concentration at which 75% inhibition of growth is observed after 48 h. In a few lines: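 Broth microdilution following NCCLS M38-P, in MOPS-buffered medium at pH 7.0, with seven 1:2 serial dilutions starting at a final 50 μM. Conidial inoculum came from 7-day potato dextrose agar slants, adjusted to OD 0.09–0.11 then diluted. MIC = lowest concentration giving 75% growth inhibition after 48 h at 35 °C.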

With `N=C(N)NCCCNC(=O)c1ccc2[nH]c(C(=O)Nc3ccc4cc(C(=O)NCCNC(=N)N)[nH]c4c3)cc2c1` [Compound 52, 1H-Indole-2,5-dicarboxylic acid 2-{[2-(2-guanidinoethylcarbamoyl)-1H-indol-6-yl]amide} 5-[(3-guanidinopropyl)amide]dihydrochloride], the minimum inhibitory concentration (MIC) is at most 45.5 µM against bacteria and at most 50 µM in the assay with Aspergillus species.

In the case of `CNC(=N)NCCCNC(=O)c1ccc2[nH]c(C(=O)Nc3ccc4[nH]c(C(=O)NCCCNC(=N)NC)cc4c3)cc2c1` [Compound 76, 1H-Indole-2,5-dicarboxylic acid S-[(3-(N′-methyl-guanidino)-propyl)-amide] 2-[[2-(3-(N′-methyl-guanidino)-propylcarbamoyl)-1H-indol-5-yl-]-amide)], the MIC in the assay with bacteria was at most 45.5 µM; with Aspergillus species, at most 50 µM.

For `N=C(N)NCCCCCNC(=O)c1cc2cc(NC(=O)c3ccc4[nH]c(C(=O)NCCCCCNC(=N)N)cc4c3)ccc2[nH]1` [Compound 20, 1H-Indole-2,5-dicarboxylic acid 2-[(5-guanidino-pentyl)-amide] 5-{[2-(5-guanidino-pentylcarbanzoyl)-1H-indol-5-yl]-amide}], the MIC against bacteria was at most 45.5 µM; against Aspergillus species, at most 50 µM.

As to `CNC(=N)NCCNC(=O)c1cc2cc(NC(=O)c3cc4cc(NC(=N)NC)ccc4[nH]3)ccc2[nH]1` [Compound 108, 5-[(5-(N′-methyl-guanidine)-1H-indole-2-carbonyl)-amino]-1H-indole-2-carboxylic acid [2-(N′-methyl-guanidino)ethyl]-amide], the results for the minimum inhibitory concentration (MIC) against bacteria and against Aspergillus species were at most 45.5 µM and at most 50 µM, respectively.

Regarding `CC(C)Cn1cc(NC(=O)c2cc3cc(NC(=O)CCNC(=N)N)ccc3[nH]2)cc1C(=O)NCCC(=N)N` [Compound 115, 5-(3-Guanidino-propionylamino)-1H-indole-2-carboxylic acid [5-(2-carbamimidoyl-ethylcarbamoyl)-1-isobutyl-1H-pyrrol-3-yl]-amide], the minimum inhibitory concentration (MIC) in the assay on bacteria is at most 45.5 µM; against Aspergillus species it was at most 50 µM.

Turning to `C/N=C(\NC)NCCCNC(=O)c1cc2cc(NC(=O)c3cc4cc(C(=O)NCCN/C(=N/C)NC)ccc4[nH]3)ccc2[nH]1` [Compound 69, 1H-Indole-2,5-dicarboxylic acid 2-{[2-(N′,N″-dimethyl-guanidino)-ethyl]-amide} 5-({2-[3-(7N′,N″-dimethyl-guanidino)-propylcarbamoyl]-1H-indol-5-yl}-amide)], the MIC was at most 45.5 µM with bacteria and at most 50 µM with Aspergillus species.

With `N=C(N)CCNC(=O)c1cc2cc(NC(=O)c3cc4cc(C(=O)NCCNC(=N)N)ccc4[nH]3)ccc2[nH]1` [Compound 61, 1H-Indole-2,5-dicarboxylic acid 2-{[2-(2-carbamimidoylethylcarbamoyl)-1H-indol-5-yl]amide} 5-[(2-guanidinoethyl)amide]dihydrochloride], the results for the MIC against bacteria and in the assay on Aspergillus species were at most 45.5 µM and at most 50 µM, respectively.

As for `N=C(N)NCc1cccc(CNC(=O)c2cc3cc(NC(=O)c4ccc5[nH]c(C(=O)NCc6cccc(CNC(=N)N)c6)cc5c4)ccc3[nH]2)c1` [Compound 25, 1H-Indole-2,5-dicarboxylic acid 2-(3-guanidinomethyl-benzylamide) 5-{[2-(3-guanidinomethyl-benzylcarbamoyl)-1H-indol-5-yl]-amide}], the minimal inhibitory concentration (MIC) was at most 45.5 µM in the assay on bacteria and at most 50 µM in the assay with Aspergillus species.

As to `N=C(N)NCc1ccc(CNC(=O)c2cc3cc(NC(=O)c4ccc5[nH]c(C(=O)NCc6ccc(CNC(=N)N)cc6)cc5c4)ccc3[nH]2)cc1` [Compound 22, 1H-Indole-2,5-dicarboxylic acid 2-(4-guanidinomethyl-benzylamide) 5-{[2-(4-guanidinomethyl-benzylcarbamoyl)-1H-indol-5-yl]-amide}], the values for the MIC against bacteria and in the assay with Aspergillus species were at most 45.5 µM and at most 50 µM, respectively.

For the compound `CC(C)Cn1cc(NC(=O)c2cc3cc(C(=O)NCCNC(=N)N)ccc3[nH]2)cc1C(=O)NCCNC(=N)N` [Compound 80, 1H-Indole-2,5-dicarboxylic acid 5-[(2-guanidino-ethyl)-amide] 2-{[5-(2-guanidino-ethylcarbamoyl)-1-isobutyl-1H-pyrrol-3-yl]-amide)], the MIC against bacteria was at most 45.5 µM; against Aspergillus species it was at most 50 µM.

Take `C/N=C(\N)NCCCNC(=O)c1cc2cc(NC(=O)c3cc4cc(C(=O)NCCNC(=N)NC)ccc4[nH]3)ccc2[nH]1` [Compound 68, 1H-Indole-2,5-dicarboxylic acid 5-{[2-(N′-methyl-guanidino)-ethyl]-amide} 2-({2-[3-(N′-methyl-guanidino)-propylcarbamoyl]-1H-indol-5-yl}-amide)]: the MIC against bacteria was at most 45.5 µM; in the assay on Aspergillus species, at most 50 µM.

In the case of `CC(=N)NCCNC(=O)c1ccc2[nH]c(C(=O)Nc3ccc4[nH]c(C(=O)NCCNC(C)=N)cc4c3)cc2c1` [Compound 89], the MIC with bacteria was at most 45.5 µM; with Aspergillus species, at most 50 µM.

Regarding `C/N=C(\NC)NCCCNC(=O)c1ccc2[nH]c(C(=O)Nc3ccc4cc(C(=O)NCCCN/C(=N/C)NC)[nH]c4c3)cc2c1` [Compound 74, 1H-Indole-2,5-dicarboxylic acid 5-[(3-(N N′,N″-dimethyl-guanidino)-propyl)-amide] 2-{[2-(3-(N′,N″-dimethyl-guanidino)-propylcarbamoyl)-1H-indol-6-yl-]-amide}], the MIC is at most 45.5 µM in the assay with bacteria and at most 50 µM in the assay on Aspergillus species.

`N=C(N)NCCNC(=O)c1cc2cc(NC(=O)c3ccc4[nH]c(C(=O)NCCNC(=N)N)cc4c3)ccc2[nH]1` [Compound 10, 1H-Indole-2,5-dicarboxylic acid 2-[(2-gutanidino-ethyl)-amide] 5-{[2-(2-guanidino-ethylcarbamoyl)-1H-indol-5-yl]-amide}]: the values for the MIC against bacteria and against Aspergillus species were at most 45.5 µM and at most 50 µM, respectively.

Turning to `N=C(N)NCCCNC(=O)c1ccc2[nH]c(C(=O)Nc3ccc4cc(C(=O)NCCCNC(=N)N)[nH]c4c3)cc2c1` [Compound 72, 1H-Indole-2,5-dicarboxylic acid 5-[(3-guanidino-propyl)-amide] 2-{[2-(3-guanidino-propylcarbamoyl)-1H-indol-6-yl-]-amide}], the values for the MIC in the assay on bacteria and in the assay on Aspergillus species were at most 45.5 µM and at most 50 µM, respectively.

Regarding `CNC(=N)NCCNC(=O)c1cc2cc(NC(=O)c3cc4cc(NC(=O)CNC(=N)NC)ccc4[nH]3)ccc2[nH]1` [Compound 110], the MIC in the assay with bacteria is at most 45.5 µM; in the assay on Aspergillus species, at most 50 µM.

`N=C(N)NCC(O)CNC(=O)c1cc2cc(NC(=O)c3ccc4[nH]c(C(=O)NCC(O)CNC(=N)N)cc4c3)ccc2[nH]1` (stereo not shown) [Compound 19, 1H-Indole-2,5-dicarboxylic acid 2-[(3-guanidino-2-hydroxy-propyl)-amide] 5-{[2-(3-guanidino-2-hydroxy-propylcarbamoyl)-1H-indol-5-yl]-amide}]: the MIC in the assay with bacteria was at most 45.5 µM; in the assay on Aspergillus species, at most 50 µM.

On to `CC(=N)NCC1CCC(CNC(=O)c2cc3cc(NC(=O)c4ccc5[nH]c(C(=O)NCC6CCC(CNC(C)=N)CC6)cc5c4)ccc3[nH]2)CC1` (stereo not shown) [Compound 23, 1H-Indole-2,5-dicarboxylic acid 2-{[4-(acetimidoylamino-methyl)-cyclohexylmethyl]-amide} 5-[(2-{[4-(acetimidoylamino-methyl)-cyclohexylmethyl]-carbamoyl}-1H-indol-5-yl)-amide]], for which the MIC was at most 45.5 µM with bacteria and at most 50 µM against Aspergillus species.

In the case of `C/N=C(\NC)NCCCNC(=O)c1cc2ccc(NC(=O)c3cc4cc(C(=O)NCCN/C(=N/C)NC)ccc4[nH]3)cc2[nH]1` [Compound 64], the MIC with bacteria is at most 45.5 µM; in the assay on Aspergillus species, at most 50 µM.

For the compound `N=C(N)CCNC(=O)c1cc(NC(=O)c2ccc(C(=O)NCCNC(=N)N)cc2)cn1CC1CC1` [Compound 100, N-[5-(2-Carbamimidoyl-ethylcarbamoyl)-1-cyclopropylmethyl-1H-pyrrol-3-yl]-N′-(2-guanidino-ethyl)-terephthalamide], the MIC was at most 45.5 µM against bacteria and at most 50 µM with Aspergillus species.

For the compound `CNC(=N)NCCNC(=O)c1ccc2[nH]c(C(=O)Nc3ccc4[nH]c(C(=O)NCCNC(=N)NC)cc4c3)cc2c1` [Compound 55], the minimal inhibitory concentration (MIC) is at most 45.5 µM against bacteria and at most 50 µM with Aspergillus species.

In the case of `N=C(N)NCCCNC(=O)c1cc2cc(NC(=O)c3cc4cc(C(=O)NCCNC(=N)N)ccc4[nH]3)ccc2[nH]1` [Compound 67, 1H-Indole-2,5-dicarboxylic acid 5-[(2-guanidino-ethyl)-amide] 2-{[2-(3-guanidino-propylcarbamoyl)-1H-indol-5-yl]-amide}], the MIC with bacteria is at most 45.5 µM; in the assay with Aspergillus species, at most 50 µM.

`N=C(N)NCC1CCC(CNC(=O)c2cc3cc(NC(=O)c4ccc5[nH]c(C(=O)NCC6CCC(CNC(=N)N)CC6)cc5c4)ccc3[nH]2)CC1` (stereo not shown) [Compound 18, 1H-Indole-2,5-dicarboxylic acid 2-[(4-guanidinomethyl-cyclohexylmethyl)-amide] 5-({2-[(4-guanidinomethyl-cyclohexylmethyl)-carbamoyl}-1H-indol-5-yl}-amide)]: the MIC in the assay on bacteria is at most 45.5 µM; against Aspergillus species it was at most 50 µM.

Broadly, the MIC is the least concentration at which growth counts as inhibited.
